According to patent publication US20250196055A1, “PROCESS FOR CAPTURING CO2 FROM A MOBILE SOURCE USING AN AMINO ACID SOLVENT” (SAUDI ARABIAN OIL COMPANY, priority 2021, published 2025):

Legend:
[1] = Solubility testing in gas bubbler/sparger with continuous 9 mol % CO2 in N2; settings: 9 mol % CO2, ambient conditions
[2] = Continuous test plant: membrane contactor CO2 absorption from exhaust and solvent regeneration in stripper; settings: for solids at ambient conditions (in words): atmospheric pressure and room temperature
[3] = Preliminary solubility testing of CO2-loaded amino/amino-sulfonic acid solutions (precipitation temperature); assay type: physicochemical; settings: for solubility of CO2-loaded solution (in words): CO2 loaded 0.35-0.45 mol CO2/mol alk., lowest limit of apparatus −10° C.; for Precipitation Temperature: ambient pressure, test range −10° C. to 40° C.
Description: Preliminary solubility testing was carried out with various amino and amino-sulfonic acids and blends thereof to determine the propensity for solids precipitation. These blends were loaded with CO2 under representative process conditions: a CO2 loading from 0.35 to 0.45 mol CO2/mol alkalinity at ambient pressure and a temperature from −10° C. to 40° C. CO2 loading was achieved by addition of potassium bicarbonate instead of some potassium hydroxide as the neutralizing agent. The loading (in mol CO2 per mol alkalinity) was determined from the following equation: […]

CN[C@@H](C)C(=O)O [3 m NMA, n-methyl-alanine]
precipitation when 9 mol % CO2 continuously injected (in words) [1]: did not precipitate

NCCCS(=O)(=O)O [3 m HTAU, homotaurine]
precipitation when 9 mol % CO2 continuously injected (in words) [1]: did not precipitate

NCCS(=O)(=O)O [5 m TAU, taurine]
solids at ambient conditions (in words) ([2]; listed as 5 m taurine): solids are observed

NCCC(=O)O [5 m b-ALA, Beta-alanine]
precipitation when 9 mol % CO2 continuously injected (in words) [1]: did not precipitate

NCCS(=O)(=O)O [3 m TAU, taurine]
solubility of CO2-loaded solution (in words) [3]: soluble at process temperatures from 40 °C to 120° C., but potentially not soluble at room temperature | Solid Observed ([2]; 210 kPa stripper pressure, 120° C. stripper temperature, 3.75 kg/min liquid, 9 mol % CO2, 25 SCFM): YES | solids at ambient conditions (in words) ([2]; listed as 3 m potassium taurinate): solids are formed

CC(C)(N)C(=O)O [1 m AlBA, Amino isobutyric acid]
precipitation when 9 mol % CO2 continuously injected (in words) [1]: did not precipitate

NCCCS(=O)(=O)O [5 m homotaurine, homotaurine]
solubility of CO2-loaded solution (in words) [3]: highly soluble with no precipitation | Precipitation Temperature ([3]; Loading 0.35 mol CO2/mol alk.): <−10 °C | Precipitation Temperature ([3]; Loading 0.40 mol CO2/mol alk.): <−10 °C | Precipitation Temperature ([3]; Loading 0.45 mol CO2/mol alk.): <−10 °C
